Test results from KR20170021349A, “다양한 질병의 치료를 위한 jnk 신호 전달 경로의 세포 투과성 펩타이드 억제자의 새로운 용도” (자이겐 인플라메이션 리미티드, priority 2014, dated 2017).
Entries after “also recorded” stand apart in the source; their conditions may differ.

Legend:
Jurkat cells = test: PMA & ionomycin-induced cytokine production; assay type: cell-based; settings: Fig. 27 D-F
[1] = system: female Sprague-Dawley rats; test: CYP-induced acute cystitis, intravenous treatment, visceral pain; assay type: in vivo, rat; settings: 2 mg/kg i.v.
[2] = Ocular MTD study, subconjunctival; assay type: in vivo, rat
Brown Norway rats = test: Argon laser-induced choroidal neovascularization (ChNV), intravitreal; assay type: in vivo, rat
[3] = Distribution of C14-labelled peptide, 72 h after s.c., i.v., i.p.; assay type: in vivo, mouse; settings: 1 mg/kg, Fig. 25
[4] = Phase II trial, post-surgery intraocular inflammation, vs dexamethasone eye drops; assay type: in vivo, human
[5] = system: Hep G2 tumours in SWISS nude mice; test: Orthotopic Hep G2 human liver carcinoma, dose/response; assay type: in vivo, mouse
TC-3 cells = test: Cellular import of fluorescein-labelled TAT and TAT-IB1(s) peptides; assay type: cell-based
[6] = system: PC-3 tumours in Balb/c nude mice; test: Subcutaneous PC-3 human prostate tumour; assay type: in vivo, mouse; settings: 0.1 and 1 mg/kg/inj Q4Dx4, dose-dependent, more marked at 1 mg/kg
Wistar rats [7] = test: Ligature-induced periodontitis; assay type: in vivo, rat; settings: day 17
[8] = system: primary mouse cortical neurons (WT); test: Aβ42-induced stress/apoptosis in WT cortical neurons; assay type: cell-based
hAPP Tg mice = test: hAPP transgenic mouse model of Alzheimer's disease; assay type: in vivo
Wistar rats [9] = test: PAN-induced nephropathy, frequency of administration; assay type: in vivo, rat
Wistar rats [10] = test: Renal ischemia/reperfusion, 40 min clamping; assay type: in vivo, rat; settings: 2 mg/kg i.v. 1 h after clamping; 24 h
[11] = system: Mapk14f/f and Mapk14Δli* mice; test: DEN-induced hepatocyte proliferation (Ki67) in Mapk14-deficient mice; assay type: in vivo, mouse; settings: 20 mg/kg i.p. before DEN, 48 h
[12] = system: primary cortical neurons of PKR-/- mice; test: Aβ42-induced stress/apoptosis in PKR-/- cortical neurons; assay type: cell-based, mouse
murine macrophages = test: LPS-induced cytokine release in primary cells; assay type: cell-based, mouse; settings: Fig. 28 A-C, non-toxic concentrations
human islets = test: Human islets, 24 h hypoxia; assay type: cell-based; settings: 100 μM
[13] = 10 μM pre-treatment, 2 μM Aβ42 5 h (Example 49)
[14] = peptide pre-treatment 1 h (XG-102 10 μM), 2 μM Aβ42
[15] = dual PKR and JNK inhibition, 10 μM

NH2-DQSRPVQPFLNLTTPRKPRPPRRRQRRKKRG-COOH (H-DQSRPVQPFLNLTTPRKPRPPRRRQRRKKRG-OH; also: D-amino acids (positions not given here)) [XG-102]
PMA & ionomycin-induced IFNg, IL-6, IL-2 production (Jurkat cells): 사이토카인 방출을 억제한다 | nociceptive threshold vs vehicle ([1]; 24 h after CYP, p<0.01): 현저하게 증가하였다 | AUC 1-8 g (allodynia) vs vehicle ([1]; p<0.001): 현저하게 감소되었다 | AUC 8-60 g (hyperalgesia) vs vehicle ([1]; p<0.001): 현저하게 감소되었다 | nociceptive scores vs vehicle ([1]; p<0.001): 현저하게 감소시켰다 | NOAEL [2]: ~20 µg | mean score of fluorescein leakage (mean ± SD) (Brown Norway rats; 300 μg/ml IVT D0,D7, day 14): 2.4 ± 0.9 | mean score of fluorescein leakage (mean ± SD) (Brown Norway rats; 300 μg/ml IVT D0,D7, day 21): 2.4 ± 0.8 | % spots with score 0 (Brown Norway rats; 300 μg/ml, day 14): 7% | % spots with score 1 (Brown Norway rats; 300 μg/ml, day 14): 9% | % spots with score 2 (Brown Norway rats; 300 μg/ml, day 14): 18% | % spots with score 3 (Brown Norway rats; 300 μg/ml, day 14): 66% | reduction % vs vehicle (Brown Norway rats; 300 μg/ml, day 14, p<0.05): 17% | % spots with score 0 (Brown Norway rats; 300 μg/ml, day 21): 5% | % spots with score 1 (Brown Norway rats; 300 μg/ml, day 21): 9% | % spots with score 2 (Brown Norway rats; 300 μg/ml, day 21): 32% | % spots with score 3 (Brown Norway rats; 300 μg/ml, day 21): 55% | reduction % vs vehicle (Brown Norway rats; 300 μg/ml, day 21): -9% | mean score of fluorescein leakage (mean ± SD) (Brown Norway rats; 3000 μg/ml IVT D0,D7, day 14): 1.7 ± 0.7 | mean score of fluorescein leakage (mean ± SD) (Brown Norway rats; 3000 μg/ml IVT D0,D7, day 21): 2.3 ± 0.7 | % spots with score 0 (Brown Norway rats; 3000 μg/ml, day 14): 0% | % spots with score 1 (Brown Norway rats; 3000 μg/ml, day 14): 44% | % spots with score 2 (Brown Norway rats; 3000 μg/ml, day 14): 44% | % spots with score 3 (Brown Norway rats; 3000 μg/ml, day 14): 12% | reduction % vs vehicle (Brown Norway rats; 3000 μg/ml, day 14, p<0.001): 41% | % spots with score 0 (Brown Norway rats; 3000 μg/ml, day 21): 0% | % spots with score 1 (Brown Norway rats; 3000 μg/ml, day 21): 14% | % spots with score 2 (Brown Norway rats; 3000 μg/ml, day 21): 47% | % spots with score 3 (Brown Norway rats; 3000 μg/ml, day 21): 40% | reduction % vs vehicle (Brown Norway rats; 3000 μg/ml, day 21): -5% | general behaviour of animals (Brown Norway rats; both doses IVT): 변화되지 않는다 | tissue accumulation [3]: 간, 비장 및 골수 대부분에서 XG-102 펩타이드의 축적 | AEs leading to interruption of study treatment, events (%) ([4]; 90 μg): 11 (14.1%) | mild AEs, number of events (% of reported events) ([4]; 90 μg): 55 (70.5%) | moderate AEs, number of events (%) ([4]; 90 μg): 6 (7.7%) | patients with an AE within 24 h of administration ([4]; 90 μg): 34% | patients with intraocular pressure increased ([4]; 90 μg): 23% | severe AEs, number of events (%) ([4]; 90 μg): 17 (21.7%) | SOC eye disorders, patients ([4]; 90 μg (26 patients), p=0.025 vs dexamethasone): 55% | premature withdrawal of study eye drops, patients (%) ([4]; 90 μg (N=47)): 10 (21.3%) | overall tolerability ([4]; 90 μg and 900 μg): 내약성이 우수하였다 | anterior chamber cell grade vs dexamethasone, days 7 and 14 ([4]; 90 μg and 900 μg, FAS): 통계적으로 현저한 차이가 없었다 | anterior chamber flare grade vs dexamethasone, days 7, 14, 28 ([4]; 90 μg and 900 μg, FAS): 통계적으로 현저한 차이가 없었다 | difference in anterior chamber cell grade vs dexamethasone, day 28 ([4]; 90 μg single subconj. inj., PP, 95% CI -0.214-0.385, p=0.003): 0.086 | patients with an adverse event ([4]; 90 μg, 31/47): 66% | difference in anterior chamber cell grade vs dexamethasone, day 28 ([4]; 90 μg, FAS, 95% CI -0.215-0.321, p<0.001): 0.053 | odds of cleared ocular inflammation vs usual treatment group ([4]; 90 μg, FAS, day 7): 0.52 | odds of cleared ocular inflammation vs usual treatment group ([4]; 90 μg, FAS, day 14): 0.85 | odds of cleared ocular inflammation vs usual treatment group ([4]; 90 μg, FAS, day 28): 1.24 | odds of cleared ocular inflammation vs usual treatment group ([4]; 90 μg, PP, day 7): 0.56 | odds of cleared ocular inflammation vs usual treatment group ([4]; 90 μg, PP, day 14): 0.97 | odds of cleared ocular inflammation vs usual treatment group ([4]; 90 μg, PP, day 28): 1.45 | patients with rescue medication introduced ([4]; 90 μg, p=0.013 vs dexamethasone): 21.3% | AEs leading to interruption of study treatment, events (%) ([4]; 900 μg): 8 (11.6%) | mild AEs, number of events (%) ([4]; 900 μg): 49 (71.0%) | moderate AEs, number of events (%) ([4]; 900 μg): 12 (17.4%) | patients with an AE within 24 h of administration ([4]; 900 μg): 27% | patients with intraocular pressure increased ([4]; 900 μg): 10% | severe AEs, number of events (%) ([4]; 900 μg): 8 (11.6%) | SOC eye disorders, patients ([4]; 900 μg (24 patients)): 50% | premature withdrawal of study eye drops, patients (%) ([4]; 900 μg (N=48)): 8 (16.7%) | difference in anterior chamber cell grade vs dexamethasone, day 28 ([4]; 900 μg single subconj. inj., PP, 95% CI -0.350-0.242, non-inferior p<0.001): -0.054 | patients with an adverse event ([4]; 900 μg, 32/48): 67% | difference in anterior chamber cell grade vs dexamethasone, day 28 ([4]; 900 μg, FAS, 95% CI -0.301-0.238, p<0.001): -0.032 | odds of cleared ocular inflammation vs usual treatment group ([4]; 900 μg, FAS, day 7): 0.76 | odds of cleared ocular inflammation vs usual treatment group ([4]; 900 μg, FAS, day 14): 1.25 | odds of cleared ocular inflammation vs usual treatment group ([4]; 900 μg, FAS, day 28): 1.13 | odds of cleared ocular inflammation vs usual treatment group ([4]; 900 μg, PP, day 7): 0.84 | odds of cleared ocular inflammation vs usual treatment group ([4]; 900 μg, PP, day 14): 1.12 | odds of cleared ocular inflammation vs usual treatment group ([4]; 900 μg, PP, day 28): 1.26 | patients with rescue medication introduced ([4]; 900 μg, not significant vs dexamethasone): 14.6% | T/C ([5]; 0.1 mg/kg): 123% | tumour mass in liver, per mouse sacrificed at D171 (microscopy) ([5]; 0.1 mg/kg, 2 mice): 간에 종양 (1.3cm); also recorded: 검출된 종양 없음 | mean survival time (as headed) ([5]; 0.1 mg/kg/inj i.v. Q4Dx4, vehicle 86): 105 days | T/C ([5]; 1 mg/kg): 161% | tumour mass in liver, per mouse sacrificed at D171 (microscopy) ([5]; 1 mg/kg, 3 mice (2 without tumour)): 검출된 종양 없음; also recorded: 간에 종양 (1.9cm) | mean survival time (as headed) ([5]; 1 mg/kg/inj i.v. Q4Dx4): 138 days | T/C ([5]; 5 mg/kg): 137% | tumour mass in liver, per mouse sacrificed at D171 (microscopy) ([5]; 5 mg/kg, 3 mice): 검출된 종양 없음 검출된 종양 없음 검출된 종양 없음 | mean survival time (as headed) ([5]; 5 mg/kg/inj i.v. Q4Dx4): 118 days | tolerance (body weight) ([5]; 0.1-5 mg/kg): 내약성이 우수함 | time to enter cells (TC-3 cells; 1 μM labelled peptide): < 5 분 | stability inside cells (TC-3 cells; time course): 극도로 안정하다 | mean tumour volume over time [6]: 종양 부피의 감소 | alveolar bone height loss (ABHL) (Wistar rats [7]): 골 파괴가 덜 심함 | IL1-β expression vs placebo (Wistar rats [7]; gingival tissue ELISA): 현저하게 감소되었다 | gingival inflammation (GI) level (Wistar rats [7]; single intragingival dose day 10): GI 수준을 강하게 감소시켰다 | JNK activity (pJNK/JNK) [8, 13]: 변화는 관찰되지 않았다 | decrease of apoptosis (cleaved PARP) [8, 13]: 37% | decrease of caspase 3 activity ([8]; 10 μM, 2 μM Aβ42): 71% | decrease of cleaved PARP expression level ([8]; 10 μM, 2 μM Aβ42): 55% | decrease of cleaved caspase 3 expression level ([8]; 10 μM, 2 μM Aβ42): 93% | change of c-Jun expression vs stressed neurons without peptide [8, 14]: -65% | change of c-Jun phosphorylation vs stressed neurons without peptide [8, 14]: -74% | spatial learning in Morris Water Maze (hAPP Tg mice; 0.1 mg/kg every 2 wk or 10 mg/kg every 3 wk s.c., 4 months): 크게 영향을 받지 않았다 | brain Aβ1-42 level, Triton X-100 fraction (hAPP Tg mice; 0.1 mg/kg, p<0.05 vs vehicle): 현저한 감소를 나타내었다 | cortical 6E10 IR plaque load (hAPP Tg mice; 10 mg/kg vs vehicle): 비히클에 비해 증가하였으나 | brain homogenate Aβ1-40 levels (hAPP Tg mice; ELISA, 4 fractions): 영향을 미치지 않았다 | CSF Aβ1-40 and Aβ1-42 levels (hAPP Tg mice; p<0.01 at 10 mg/kg, <0.05 at 0.1 mg/kg): 현저하게 감소되었다 | number and area % of hippocampal ThioflavinS-positive plaques (hAPP Tg mice; p<0.05 at 10 mg/kg, p<0.01 at 0.1 mg/kg): 음성적인 투여량 의존적 감소를 유도함 | glomerular injury score (GIS) (Wistar rats [9]; 4 mg/kg i.v. x1 (d21), day 49): 1.53 ± 0.05 | glomerular injury score (GIS) (Wistar rats [9]; 4 mg/kg i.v. x1 (d21), day 77, PAN/vehicle 1.39 ± 0.10): 0.82 ± 0.04 | percentage of injured glomeruli (Wistar rats [9]; 4 mg/kg i.v. x1, day 77 (PAN/vehicle 91%)): 69% | glomerular injury score (GIS) (Wistar rats [9]; 4 mg/kg i.v. x2 (d21, d35), day 49, P<0.01): 1.26 ± 0.06 | glomerular injury score (GIS) (Wistar rats [9]; 4 mg/kg i.v. x4 (weekly from d21), day 49, PAN/vehicle 1.50 ± 0.06): 0.94 ± 0.05 | percentage of injured glomeruli (Wistar rats [9]; 4 mg/kg i.v. x4, day 49): 76.9% | mean % glomeruli with grade 1 (Wistar rats [9]; 4 mg/kg i.v. x4, day 49 (PAN/vehicle 37%)): 61% | mean % glomeruli with grade 2 (Wistar rats [9]; 4 mg/kg i.v. x4, day 49 (PAN/vehicle 46%)): 15% | serum creatinine vs untreated ischemic rats (Wistar rats [10]): 보다 낮은 혈청 크레아티닌을 보였다 | hyperproliferation of Mapk14-/- hepatocytes (Ki67) [11]: 되돌린다 | decrease of PARP expression level vs treated WT neurons [12, 15]: 93% | decrease of caspase 3 activity vs treated WT neurons [12, 15]: 87% | decrease of cleaved caspase 3 vs treated WT neurons [12, 15]: 83% | change of JNK activation ([12]; peptide pre-treatment (XG-102 10 μM), 2 μM Aβ42): -35% | c-Jun activation ([12]; peptide pre-treatment, 2 μM Aβ42): 변화시키지 않았다 | LPS-induced TNFa, IL-6, Rantes release (murine macrophages): 사이토카인 방출을 억제한다 | hypoxia-induced islet apoptosis (human islets): 세포 자멸을 감소시키는 | islet necrosis (human islets; normoxia and hypoxia): 괴사를 감소시키는
